According to ChEMBL document CHEMBL4507278 (2021):

What was measured:
[1] = biological target: Phosphorylase b kinase gamma catalytic chain, skeletal muscle/heart isoform (Homo sapiens) (UniProt Q16816); conditions: Compound concentration 1000.0 nM
[2] = biological target: Glycogen synthase kinase-3 alpha (Homo sapiens) (UniProt P49840); conditions: Compound concentration 1000.0 nM
[3] = biological target: Dual specificity mitogen-activated protein kinase kinase 2 (Homo sapiens) (UniProt P36507); conditions: Compound concentration 1000.0 nM
[4] = biological target: Tyrosine-protein kinase ABL1 (Homo sapiens) (UniProt P00519); conditions: Compound concentration 1000.0 nM
[5] = biological target: Serine/threonine-protein kinase MARK2 (Homo sapiens) (UniProt Q7KZI7); conditions: Compound concentration 1000.0 nM
[6] = biological target: Activated CDC42 kinase 1 (Homo sapiens) (UniProt Q07912); conditions: Compound concentration 1000.0 nM
[7] = biological target: GABA-A receptor; anion channel (Rattus norvegicus) (UniProt O09028+P15431+P18506+P18508+P19969+P20236+P23574+P23576+P28471+P28473+P30191+P62813+P63079+P63138+Q91ZM7+Q9ES14); conditions: Compound concentration 10.0 uM
[8] = biological target: Misshapen-like kinase 1 (Homo sapiens) (UniProt Q8N4C8); conditions: Compound concentration 1000.0 nM
[9] = biological target: Glycogen synthase kinase-3 beta (Homo sapiens) (UniProt P49841); conditions: Compound concentration 1000.0 nM
[10] = biological target: Hepatocyte growth factor receptor (Homo sapiens) (UniProt P08581); conditions: Compound concentration 1000.0 nM
[11] = biological target: Mast/stem cell growth factor receptor Kit (Homo sapiens) (UniProt P10721); conditions: Compound concentration 1000.0 nM
[12] = biological target: Myosin-IIIa (Homo sapiens) (UniProt Q8NEV4); conditions: Compound concentration 1000.0 nM
[13] = biological target: Mitogen-activated protein kinase kinase kinase 13 (Homo sapiens) (UniProt O43283); conditions: Compound concentration 1000.0 nM
[14] = biological target: Serine/threonine-protein kinase D2 (Homo sapiens) (UniProt Q9BZL6); conditions: Compound concentration 1000.0 nM
[15] = biological target: Serine/threonine-protein kinase B-raf (Homo sapiens) (UniProt P15056); conditions: Compound concentration 1000.0 nM
[16] = biological target: Vascular endothelial growth factor receptor 1 (Homo sapiens) (UniProt P17948); conditions: Compound concentration 1000.0 nM
[17] = biological target: Aurora kinase B (Homo sapiens) (UniProt Q96GD4); conditions: Compound concentration 1000.0 nM
[18] = biological target: Serine/threonine-protein kinase TNNI3K (Homo sapiens) (UniProt Q59H18); conditions: Compound concentration 1000.0 nM
[19] = biological target: Serine/threonine-protein kinase D1 (Homo sapiens) (UniProt Q15139); conditions: Compound concentration 1000.0 nM
[20] = biological target: LIM domain kinase 2 (Homo sapiens) (UniProt P53671); conditions: Compound concentration 1000.0 nM
[21] = biological target: Dual specificity protein kinase CLK3 (Homo sapiens) (UniProt P49761); conditions: Compound concentration 1000.0 nM
[22] = biological target: Phosphatidylinositol 4,5-bisphosphate 3-kinase catalytic subunit beta isoform (Homo sapiens) (UniProt P42338); conditions: Compound concentration 1000.0 nM
[23] = biological target: Hormonally up-regulated neu tumor-associated kinase (Homo sapiens) (UniProt P57058); conditions: Compound concentration 1000.0 nM
[24] = biological target: Receptor tyrosine-protein kinase erbB-4 (Homo sapiens) (UniProt Q15303); conditions: Compound concentration 1000.0 nM
[25] = system: Epidermal growth factor receptor (Homo sapiens), P00533 [G719S]; conditions: Compound concentration 1000.0 nM
[26] = biological target: Cyclin-dependent kinase 15 (Homo sapiens) (UniProt Q96Q40); conditions: Compound concentration 1000.0 nM
[27] = biological target: Cyclin-dependent kinase 4 (Homo sapiens) (UniProt P11802); conditions: Compound concentration 1000.0 nM
[28] = system: Tyrosine-protein kinase ABL1 (Homo sapiens), P00519 [F317I]; conditions: Compound concentration 1000.0 nM
[29] = system: Tyrosine-protein kinase ABL1 (Homo sapiens), P00519 [T315I]; conditions: Compound concentration 1000.0 nM
[30] = biological target: SRSF protein kinase 2 (Homo sapiens) (UniProt P78362); conditions: Compound concentration 1000.0 nM
[31] = biological target: Ribosomal protein S6 kinase alpha-2 (Homo sapiens) (UniProt Q15349); conditions: Compound concentration 1000.0 nM
[32] = biological target: Phosphatidylinositol 4,5-bisphosphate 3-kinase catalytic subunit gamma isoform (Homo sapiens) (UniProt P48736); conditions: Compound concentration 1000.0 nM
[33] = biological target: Tyrosine-protein kinase SYK (Homo sapiens) (UniProt P43405); conditions: Compound concentration 1000.0 nM
[34] = system: eIF-2-alpha kinase GCN2 (Homo sapiens), Q9P2K8 [S808G]; conditions: Compound concentration 1000.0 nM
[35] = biological target: Dual specificity tyrosine-phosphorylation-regulated kinase 2 (Homo sapiens) (UniProt Q92630); conditions: Compound concentration 1000.0 nM
[36] = biological target: 1-phosphatidylinositol 3-phosphate 5-kinase (Homo sapiens) (UniProt Q9Y2I7); conditions: Compound concentration 1000.0 nM
[37] = biological target: Tyrosine-protein kinase ITK/TSK (Homo sapiens) (UniProt Q08881); conditions: Compound concentration 1000.0 nM
[38] = biological target: Serine/threonine-protein kinase haspin (Homo sapiens) (UniProt Q8TF76); conditions: Compound concentration 1000.0 nM
[39] = biological target: Bone morphogenetic protein receptor type-2 (Homo sapiens) (UniProt Q13873); conditions: Compound concentration 1000.0 nM
[40] = biological target: Serine/threonine-protein kinase ULK1 (Homo sapiens) (UniProt O75385); conditions: Compound concentration 1000.0 nM
[41] = biological target: Phosphatidylinositol 4-phosphate 5-kinase type-1 alpha (Homo sapiens) (UniProt Q99755); conditions: Compound concentration 1000.0 nM
[42] = biological target: Phosphatidylinositol 4-phosphate 5-kinase type-1 gamma (Homo sapiens) (UniProt O60331); conditions: Compound concentration 1000.0 nM
[43] = biological target: Histamine H3 receptor (Homo sapiens) (UniProt Q9Y5N1); conditions: Compound concentration 10.0 uM
[44] = biological target: Mitogen-activated protein kinase kinase kinase kinase 3 (Homo sapiens) (UniProt Q8IVH8); conditions: Compound concentration 1000.0 nM

Phosphatidylinositol 4,5-bisphosphate 3-kinase catalytic subunit beta isoform (Homo sapiens), sequence (P42338 whole entry, looked up, canonical isoform): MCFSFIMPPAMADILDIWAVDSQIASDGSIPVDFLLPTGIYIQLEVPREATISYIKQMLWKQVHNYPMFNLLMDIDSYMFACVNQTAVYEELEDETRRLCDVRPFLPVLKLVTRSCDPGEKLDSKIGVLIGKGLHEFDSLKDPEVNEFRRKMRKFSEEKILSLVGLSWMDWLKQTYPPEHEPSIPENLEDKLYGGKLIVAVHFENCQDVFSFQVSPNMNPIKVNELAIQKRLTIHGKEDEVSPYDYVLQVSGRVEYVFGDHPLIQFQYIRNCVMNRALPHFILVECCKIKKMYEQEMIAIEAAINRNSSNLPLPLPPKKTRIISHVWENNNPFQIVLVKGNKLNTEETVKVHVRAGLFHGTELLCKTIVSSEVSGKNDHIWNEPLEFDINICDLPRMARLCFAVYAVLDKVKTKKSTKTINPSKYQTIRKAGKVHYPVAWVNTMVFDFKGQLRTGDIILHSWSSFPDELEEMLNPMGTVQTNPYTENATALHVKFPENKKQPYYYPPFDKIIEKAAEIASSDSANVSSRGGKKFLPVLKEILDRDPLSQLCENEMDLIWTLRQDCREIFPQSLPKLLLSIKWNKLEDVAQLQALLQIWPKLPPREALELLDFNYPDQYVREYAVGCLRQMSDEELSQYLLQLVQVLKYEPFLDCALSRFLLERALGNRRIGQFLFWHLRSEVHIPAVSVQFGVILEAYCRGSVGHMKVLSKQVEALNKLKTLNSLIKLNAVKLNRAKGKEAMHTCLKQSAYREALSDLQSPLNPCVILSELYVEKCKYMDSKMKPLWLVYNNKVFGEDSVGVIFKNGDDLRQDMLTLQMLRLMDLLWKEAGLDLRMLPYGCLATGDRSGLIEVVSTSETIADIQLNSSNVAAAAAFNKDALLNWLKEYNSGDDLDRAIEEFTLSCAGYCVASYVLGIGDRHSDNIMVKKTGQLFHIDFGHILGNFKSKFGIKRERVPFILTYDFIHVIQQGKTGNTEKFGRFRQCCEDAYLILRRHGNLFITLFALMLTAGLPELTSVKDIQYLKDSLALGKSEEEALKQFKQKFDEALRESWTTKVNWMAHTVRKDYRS
SRSF protein kinase 2 (Homo sapiens), sequence (P78362 whole entry, looked up): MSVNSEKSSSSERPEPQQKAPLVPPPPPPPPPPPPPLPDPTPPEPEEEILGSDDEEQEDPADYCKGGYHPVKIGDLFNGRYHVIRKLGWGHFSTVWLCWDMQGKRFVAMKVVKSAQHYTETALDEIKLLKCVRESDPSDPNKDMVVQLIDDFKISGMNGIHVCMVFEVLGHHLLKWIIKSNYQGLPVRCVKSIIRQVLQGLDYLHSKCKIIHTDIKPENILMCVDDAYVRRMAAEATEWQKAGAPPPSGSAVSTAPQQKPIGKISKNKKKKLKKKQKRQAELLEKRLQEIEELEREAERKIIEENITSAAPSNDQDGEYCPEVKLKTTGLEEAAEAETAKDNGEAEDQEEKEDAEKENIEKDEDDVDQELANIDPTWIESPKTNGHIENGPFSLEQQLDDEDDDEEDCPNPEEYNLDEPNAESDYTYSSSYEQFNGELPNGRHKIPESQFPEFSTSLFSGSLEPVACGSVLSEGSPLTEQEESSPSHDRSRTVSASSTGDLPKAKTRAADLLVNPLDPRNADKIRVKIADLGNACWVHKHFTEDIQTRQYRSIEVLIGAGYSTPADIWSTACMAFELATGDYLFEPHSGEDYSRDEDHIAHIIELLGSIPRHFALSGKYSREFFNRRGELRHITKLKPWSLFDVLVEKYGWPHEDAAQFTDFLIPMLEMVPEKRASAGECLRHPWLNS
Serine/threonine-protein kinase B-raf (Homo sapiens), sequence (P15056 whole entry): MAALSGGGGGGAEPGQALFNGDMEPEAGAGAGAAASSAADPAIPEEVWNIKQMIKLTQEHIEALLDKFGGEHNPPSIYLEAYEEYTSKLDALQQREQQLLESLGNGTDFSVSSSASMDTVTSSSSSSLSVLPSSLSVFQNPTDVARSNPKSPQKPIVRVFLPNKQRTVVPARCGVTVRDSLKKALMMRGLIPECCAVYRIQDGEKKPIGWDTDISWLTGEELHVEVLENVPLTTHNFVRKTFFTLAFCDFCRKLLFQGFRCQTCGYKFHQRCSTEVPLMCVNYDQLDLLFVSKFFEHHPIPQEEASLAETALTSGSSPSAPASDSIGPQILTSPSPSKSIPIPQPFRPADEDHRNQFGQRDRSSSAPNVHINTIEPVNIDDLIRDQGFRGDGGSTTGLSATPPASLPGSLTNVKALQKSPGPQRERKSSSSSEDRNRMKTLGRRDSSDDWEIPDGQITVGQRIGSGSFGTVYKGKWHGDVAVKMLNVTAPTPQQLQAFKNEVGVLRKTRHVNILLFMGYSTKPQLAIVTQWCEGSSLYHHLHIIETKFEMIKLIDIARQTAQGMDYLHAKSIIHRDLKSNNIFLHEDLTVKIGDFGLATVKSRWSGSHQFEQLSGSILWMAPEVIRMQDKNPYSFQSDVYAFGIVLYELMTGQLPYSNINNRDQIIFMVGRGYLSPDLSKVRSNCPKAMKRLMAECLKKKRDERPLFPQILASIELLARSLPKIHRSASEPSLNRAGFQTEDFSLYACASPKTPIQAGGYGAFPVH
Serine/threonine-protein kinase D1 (Homo sapiens), sequence (Q15139 whole entry, the tested form may be a part): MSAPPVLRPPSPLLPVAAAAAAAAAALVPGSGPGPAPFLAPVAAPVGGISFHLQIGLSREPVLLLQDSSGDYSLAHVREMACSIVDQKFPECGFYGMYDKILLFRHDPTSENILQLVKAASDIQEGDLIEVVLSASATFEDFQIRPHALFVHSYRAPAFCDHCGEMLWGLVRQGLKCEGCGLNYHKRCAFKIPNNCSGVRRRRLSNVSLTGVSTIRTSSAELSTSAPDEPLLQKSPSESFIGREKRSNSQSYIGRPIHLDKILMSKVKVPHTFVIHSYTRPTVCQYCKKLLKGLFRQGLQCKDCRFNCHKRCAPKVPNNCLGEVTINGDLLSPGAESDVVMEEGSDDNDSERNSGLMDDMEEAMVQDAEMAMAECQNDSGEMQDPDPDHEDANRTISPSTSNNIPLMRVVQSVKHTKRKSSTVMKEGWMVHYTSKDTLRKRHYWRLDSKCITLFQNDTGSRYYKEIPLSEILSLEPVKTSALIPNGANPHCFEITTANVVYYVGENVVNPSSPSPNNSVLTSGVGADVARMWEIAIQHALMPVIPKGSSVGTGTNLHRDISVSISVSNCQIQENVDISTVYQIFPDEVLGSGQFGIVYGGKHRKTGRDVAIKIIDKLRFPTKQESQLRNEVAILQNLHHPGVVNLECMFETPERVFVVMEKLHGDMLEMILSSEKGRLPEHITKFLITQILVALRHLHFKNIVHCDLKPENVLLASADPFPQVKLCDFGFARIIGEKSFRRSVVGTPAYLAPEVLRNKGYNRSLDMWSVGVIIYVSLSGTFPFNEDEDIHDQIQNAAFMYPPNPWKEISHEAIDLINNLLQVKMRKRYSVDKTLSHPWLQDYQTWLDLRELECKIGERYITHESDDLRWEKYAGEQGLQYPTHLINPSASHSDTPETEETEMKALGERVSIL
Cyclin-dependent kinase 15 (Homo sapiens), sequence (Q96Q40 whole entry): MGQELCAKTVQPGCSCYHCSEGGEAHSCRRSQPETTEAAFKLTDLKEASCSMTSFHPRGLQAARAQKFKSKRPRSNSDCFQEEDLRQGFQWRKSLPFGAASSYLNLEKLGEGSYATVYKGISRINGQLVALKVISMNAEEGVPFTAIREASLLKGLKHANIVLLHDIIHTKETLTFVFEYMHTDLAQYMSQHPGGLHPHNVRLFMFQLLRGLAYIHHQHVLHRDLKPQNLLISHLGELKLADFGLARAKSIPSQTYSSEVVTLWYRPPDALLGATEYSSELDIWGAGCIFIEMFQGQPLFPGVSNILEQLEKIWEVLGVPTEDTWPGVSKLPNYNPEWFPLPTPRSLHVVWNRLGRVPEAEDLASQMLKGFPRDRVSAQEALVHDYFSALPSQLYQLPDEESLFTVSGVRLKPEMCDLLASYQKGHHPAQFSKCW
Serine/threonine-protein kinase MARK2 (Homo sapiens), sequence (Q7KZI7 whole entry): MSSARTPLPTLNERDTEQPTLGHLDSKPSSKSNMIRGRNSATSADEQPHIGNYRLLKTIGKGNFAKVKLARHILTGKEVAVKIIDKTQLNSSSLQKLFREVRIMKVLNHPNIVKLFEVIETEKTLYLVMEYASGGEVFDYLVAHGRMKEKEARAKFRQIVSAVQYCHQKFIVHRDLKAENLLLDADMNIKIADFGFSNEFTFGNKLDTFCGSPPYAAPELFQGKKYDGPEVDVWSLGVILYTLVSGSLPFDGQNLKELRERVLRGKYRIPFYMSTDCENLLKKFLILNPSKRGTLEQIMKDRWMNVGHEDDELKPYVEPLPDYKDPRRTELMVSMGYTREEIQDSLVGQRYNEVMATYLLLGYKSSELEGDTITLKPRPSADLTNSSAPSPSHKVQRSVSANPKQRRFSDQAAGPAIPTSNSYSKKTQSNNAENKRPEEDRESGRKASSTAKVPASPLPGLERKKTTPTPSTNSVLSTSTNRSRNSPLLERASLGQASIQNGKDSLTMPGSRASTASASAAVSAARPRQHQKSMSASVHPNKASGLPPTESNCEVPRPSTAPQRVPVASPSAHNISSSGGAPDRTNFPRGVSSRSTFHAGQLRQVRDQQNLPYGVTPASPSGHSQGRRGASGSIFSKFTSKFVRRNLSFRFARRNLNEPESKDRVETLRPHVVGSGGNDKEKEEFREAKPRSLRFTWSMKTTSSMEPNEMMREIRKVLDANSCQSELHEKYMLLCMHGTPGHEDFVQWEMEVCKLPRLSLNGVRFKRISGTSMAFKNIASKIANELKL
Phosphorylase b kinase gamma catalytic chain, skeletal muscle/heart isoform (Homo sapiens), sequence (Q16816 whole entry, looked up, canonical isoform): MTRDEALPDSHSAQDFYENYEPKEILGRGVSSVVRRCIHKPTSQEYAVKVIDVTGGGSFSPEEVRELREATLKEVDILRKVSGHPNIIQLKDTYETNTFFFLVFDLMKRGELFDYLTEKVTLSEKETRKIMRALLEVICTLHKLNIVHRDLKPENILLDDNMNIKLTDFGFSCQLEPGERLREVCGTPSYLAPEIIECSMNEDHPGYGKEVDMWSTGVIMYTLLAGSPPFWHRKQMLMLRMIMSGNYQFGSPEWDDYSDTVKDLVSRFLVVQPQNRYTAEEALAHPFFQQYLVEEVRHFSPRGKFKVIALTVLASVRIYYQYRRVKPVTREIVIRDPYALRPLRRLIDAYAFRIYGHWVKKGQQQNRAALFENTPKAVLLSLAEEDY

CS(=O)(=O)NCC[C@H](NC(=O)c1cncc2c1cnn2-c1ccc(F)cc1)c1ccnc(S(C)(=O)=O)c1 [BI 9307]
inactive: residual activity [1] 75% | residual activity [2] 100% | residual activity [3] 100% | residual activity [4] 90% | residual activity [5] 75% | residual activity [6] 100% | inhibition [7] 23.5% | residual activity [8] 100% | residual activity [9] 100% | residual activity [10] 79% | residual activity [11] 100% | residual activity [12] 93% | residual activity [13] 100% | residual activity [14] 94% | residual activity [15] 79% | residual activity [16] 90% | residual activity [17] 100% | residual activity [18] 100% | residual activity [19] 92% | residual activity [20] 100% | residual activity [21] 99% | residual activity [22] 93% | residual activity [23] 100% | residual activity [24] 95% | residual activity [25] 75% | residual activity [26] 79% | residual activity [27] 100% | residual activity [28] 85% | residual activity [29] 93% | residual activity [30] 100% | residual activity [31] 100% | residual activity [32] 80% | residual activity [33] 100% | residual activity [34] 100% | residual activity [35] 91% | residual activity [36] 76% | residual activity [37] 99% | residual activity [38] 100% | residual activity [39] 100% | residual activity [40] 100% | residual activity [41] 100% | residual activity [42] 78% | inhibition [43] 18.9% | residual activity [44] 90%

CS(=O)(=O)c1cc(C2(NC(=O)c3cncc4c3cnn4-c3ccc(F)cc3)CC2)ccn1 [BI 639667]
inactive: residual activity [1] 78% | residual activity [2] 70% | residual activity [3] 80% | residual activity [4] 86% | residual activity [5] 100% | residual activity [6] 100% | inhibition [7] 6.63% | residual activity [8] 100% | residual activity [9] 85% | residual activity [10] 100% | residual activity [11] 100% | residual activity [12] 85% | residual activity [13] 76% | residual activity [14] 97% | residual activity [15] 87% | residual activity [16] 100% | residual activity [17] 88% | residual activity [18] 64% | residual activity [19] 100% | residual activity [20] 100% | residual activity [21] 86% | residual activity [22] 100% | residual activity [23] 100% | residual activity [24] 100% | residual activity [25] 100% | residual activity [26] 100% | residual activity [27] 100% | residual activity [28] 98% | residual activity [29] 75% | residual activity [30] 100% | residual activity [31] 88% | residual activity [32] 82% | residual activity [33] 100% | residual activity [34] 91% | residual activity [35] 95% | residual activity [36] 79% | residual activity [37] 89% | residual activity [38] 90% | residual activity [39] 99% | residual activity [40] 100% | residual activity [41] 100% | residual activity [42] 95% | inhibition [43] 29.6% | residual activity [44] 87%
